According to ChEMBL document CHEMBL3227972, “Correlation of carbonic anhydrase inhibitory activities of benzenesulfonamides with the data obtained by use of nitrogen-14 nuclear quadrupole resonance” (J Med Chem, 1979):

Species on record: Homo sapiens
Assay: Inhibition of carbonic anhydrase (unknown origin) relative to sulfanilamide

SMILES | fold change (FC)
Nc1ccc(S(N)(=O)=O)cc1 | 1
NS(=O)(=O)c1ccc(Cl)cc1 | 18
NS(=O)(=O)c1ccc([N+](=O)[O-])cc1 | 23

Next, values leading:

fold change (FC) | SMILES
4 | NS(=O)(=O)c1ccccc1
1.8 | Cc1ccccc1S(N)(=O)=O
2.5 | Nc1cccc(S(N)(=O)=O)c1
